From patent publication US9476099B2 (TRUSTEES OF DARTMOUTH COLLEGE, priority 2012, dated 2016)

Tested on: gene promoters in NT2/D1-R1 control and DNMT3B knockdown cells
Assay: Genome-wide promoter methylation analysis, HumanMethylation27 BeadChip (Table 15)
Type: cell-based, human
Settings: sh-ctrl + 5aza
Procedure: DNA methylation analysis was performed in samples in triplicate using the […] […] assay with the HumanMethylation27 BeadChip ([…]) and the BeadChip was scanned on the BeadArray Reader ([…]), according to the manufacturer's instructions. Raw data was normalized and analyzed with Genome Studio software ([…]). The HumanMethylation27 BeadChip assays 27,578 CpGs covering more than 14,000 genes, mostly from promoter regions. […] Hierarchical clustering was performed as stated above. HumanMethylation27 BeadChip data and gene expression microarray data were submitted to NCBI GEO.

Nc1ncn([C@H]2C[C@H](O)[C@@H](CO)O2)c(=O)n1 [5aza]
ABCC1 cg20158248 promoter methylation Mean: 0.480
ACP1 cg27226618 promoter methylation Mean: 0.786
ADCY4 cg16761581 promoter methylation Mean: 0.609
ADRA2A cg26926521 promoter methylation Mean: 0.939
ALDH1A3 cg19224278 promoter methylation Mean: 0.443
ALKBH4 cg07404418 promoter methylation Mean: 0.458
ALX4 cg04549333 promoter methylation Mean: 1.136
ALX4 cg04970352 promoter methylation Mean: 0.964
ALX4 cg19358442 promoter methylation Mean: 1.126
ANKRD13C cg19342782 promoter methylation Mean: 0.544
ANKRD45 cg15883716 promoter methylation Mean: 1.017
APC cg16970232 promoter methylation Mean: 0.424
BLOC1S2 cg26610808 promoter methylation Mean: 0.575
BTBD5 cg00660989 promoter methylation Mean: 0.347
BTNL8 cg24024214 promoter methylation Mean: 1.068
C1QL1 cg13818573 promoter methylation Mean: 0.460
C1orf188 cg15731815 promoter methylation Mean: 0.541
C10orf107 cg16063112 promoter methylation Mean: 0.354
C14orf173 cg24404909 promoter methylation Mean: 0.379
C16orf60 cg17858663 promoter methylation Mean: 0.245
C19orf4 cg07379574 promoter methylation Mean: 1.078
C19orf22 cg18022193 promoter methylation Mean: 0.288
CAMK1G cg27337148 promoter methylation Mean: 1.021
CD58 cg21039631 promoter methylation Mean: 0.251
CDKN2B cg04675937 promoter methylation Mean: 0.256
CDKN2B cg08390209 promoter methylation Mean: 0.280
CDX1 cg15452204 promoter methylation Mean: 0.595
CEACAM4 cg10237469 promoter methylation Mean: 0.718
CEACAM7 cg19623751 promoter methylation Mean: 0.886
CGI-38 cg13067215 promoter methylation Mean: 0.513
CHD5 cg00282347 promoter methylation Mean: 1.005
CHMP2A cg14042128 promoter methylation Mean: 0.541
COL11A1 cg12884406 promoter methylation Mean: 0.415
COPS7B cg05422352 promoter methylation Mean: 0.579
CRSP7 cg24459023 promoter methylation Mean: 0.301
CSPG3 cg06952310 promoter methylation Mean: 0.480
CSTF2T cg06712026 promoter methylation Mean: 0.431
CTAGE1 cg02847216 promoter methylation Mean: 0.955
CUL3 cg09509863 promoter methylation Mean: 0.411
CYP4F12 cg25813714 promoter methylation Mean: 0.959
DCTD cg14892066 promoter methylation Mean: 0.243
DDEF2 cg22190705 promoter methylation Mean: 0.329
DEFB118 cg03014957 promoter methylation Mean: 0.690
DNASE2 cg07955356 promoter methylation Mean: 0.275
DPH1 cg11516377 promoter methylation Mean: 0.465
DYRK1B cg18851831 promoter methylation Mean: 1.262
EIF2B3 cg16604218 promoter methylation Mean: 0.543
ELSPBP1 cg19404979 promoter methylation Mean: 0.655
ENOSF1 cg16112050 promoter methylation Mean: 1.028
EPN3 cg24006361 promoter methylation Mean: 1.019
EREG cg19308222 promoter methylation Mean: 0.356
FAM111B cg13864937 promoter methylation Mean: 0.508
FLJ10726 cg14145762 promoter methylation Mean: 0.436
FLJ11200 cg09001953 promoter methylation Mean: 0.482
FLJ23514 cg16404106 promoter methylation Mean: 0.628
FLRT3 cg23127998 promoter methylation Mean: 0.397
FLT3LG cg01667384 promoter methylation Mean: 0.249
FXYD7 cg22392666 promoter methylation Mean: 1.028
G10 cg02798801 promoter methylation Mean: 0.608
GABRB2 cg16509658 promoter methylation Mean: 0.219
GALNT4 cg16606638 promoter methylation Mean: 0.265
GAS8 cg03634997 promoter methylation Mean: 1.082
GBX2 cg23095584 promoter methylation Mean: 0.468
GNAS cg27661264 promoter methylation Mean: 0.565
GRB10 cg26163537 promoter methylation Mean: 0.312
GUP1 cg24938727 promoter methylation Mean: 0.640
HACE1 cg23047681 promoter methylation Mean: 0.204
HGF cg06745740 promoter methylation Mean: 0.594
HNRNPG-T cg22062068 promoter methylation Mean: 0.977
HOXB4 cg25145670 promoter methylation Mean: 0.488
HRASLS cg08376864 promoter methylation Mean: 0.853
HYPK cg00480356 promoter methylation Mean: 0.818
ICAM1 cg08607082 promoter methylation Mean: 0.244
IFI16 cg07463059 promoter methylation Mean: 0.582
IFI44 cg07107453 promoter methylation Mean: 0.513
IFNA2 cg13235447 promoter methylation Mean: 0.697
IGF2AS cg20792294 promoter methylation Mean: 0.323
IGFBP5 cg19008649 promoter methylation Mean: 0.370
IGSF9 cg19111262 promoter methylation Mean: 0.826
IHH cg17178336 promoter methylation Mean: 0.709
IL2RG cg01361446 promoter methylation Mean: 1.103
IL18 cg11304234 promoter methylation Mean: 0.646
INPP5B cg10784030 promoter methylation Mean: 0.366
ITGB3BP cg18464559 promoter methylation Mean: 0.168
KA21 cg23776012 promoter methylation Mean: 0.641
KCNA3 cg03483626 promoter methylation Mean: 0.326
KCNAB3 cg14918082 promoter methylation Mean: 0.852
KCNB2 cg11754206 promoter methylation Mean: 0.551
KCNK10 cg17671157 promoter methylation Mean: 1.059
KLK7 cg19953406 promoter methylation Mean: 0.983
LAMB1 cg10064162 promoter methylation Mean: 0.426
LDHD cg24429836 promoter methylation Mean: 0.760
LIG4 cg08216792 promoter methylation Mean: 0.356
LYNX1 cg24046110 promoter methylation Mean: 0.430
MC3R cg19226099 promoter methylation Mean: 1.057
MGC26856 cg07684809 promoter methylation Mean: 0.489
MLNR cg02620013 promoter methylation Mean: 0.755
MPHOSPH6 cg16119274 promoter methylation Mean: 0.444
MSX1 cg03199651 promoter methylation Mean: 0.288
MYOD1 cg24322623 promoter methylation Mean: 0.931
NCKIPSD cg04244987 promoter methylation Mean: 0.392
NDP cg11614809 promoter methylation Mean: 0.756
NEFH cg16042149 promoter methylation Mean: 1.041
NEIL2 cg14329976 promoter methylation Mean: 0.360
NME5 cg13707560 promoter methylation Mean: 1.225
NME5 cg25507001 promoter methylation Mean: 0.889
NOC3L cg07270175 promoter methylation Mean: 0.614
NOX4 cg17063929 promoter methylation Mean: 0.483
NPAS1 cg09628601 promoter methylation Mean: 0.553
NRXN1 cg10917619 promoter methylation Mean: 0.867
OR1N1 cg14598387 promoter methylation Mean: 0.606
OR10J1 cg15700197 promoter methylation Mean: 0.679
PACS1 cg01663295 promoter methylation Mean: 0.625
PCDHB13 cg14592099 promoter methylation Mean: 0.747
PCDHB13 cg24435562 promoter methylation Mean: 0.441
PCDHGA12 cg11647681 promoter methylation Mean: 0.936
PCGF5 cg17001035 promoter methylation Mean: 0.893
PEPD cg06546607 promoter methylation Mean: 0.266
PEX5L cg02430692 promoter methylation Mean: 0.511
PI3 cg02442161 promoter methylation Mean: 0.857
PIGL cg05310071 promoter methylation Mean: 0.351
POU3F3 cg20291049 promoter methylation Mean: 0.387
POU4F2 cg24199834 promoter methylation Mean: 0.287
PTCH2 cg15329642 promoter methylation Mean: 0.789
PTPN5 cg17233601 promoter methylation Mean: 0.801
RASGEF1A cg07871503 promoter methylation Mean: 0.945
RBPSUHL cg21835643 promoter methylation Mean: 1.018
REM1 cg12153542 promoter methylation Mean: 0.664
REM1 cg26299767 promoter methylation Mean: 0.727
RLN3R1 cg12238343 promoter methylation Mean: 0.732
RPL39L cg07441272 promoter methylation Mean: 0.691
RRM2B cg07125123 promoter methylation Mean: 0.370
RYR1 cg05471297 promoter methylation Mean: 0.480
S100A12 cg02813121 promoter methylation Mean: 0.941
SCUBE2 cg01081263 promoter methylation Mean: 0.693
SCUBE2 cg19237879 promoter methylation Mean: 0.670
SEMA3E cg08274234 promoter methylation Mean: 0.306
SEMA6C cg01958916 promoter methylation Mean: 0.267
SEPN1 cg21187265 promoter methylation Mean: 0.387
